According to ChEMBL document CHEMBL2413072, “Synthesis and in vitro anticancer studies of novel C-2 arylidene congeners of lantadenes” (2013):

Experiments:
Type in all cases: functional
MDA-MB-468 [1] = assay: Growth inhibition of human MDA-MB-468 cells assessed as cell growth at 10^-8 M by sulforhodamine B assay; conditions: read-out: Activity
NCI-H226 [2] = assay: Growth inhibition of human NCI-H226 cells assessed as cell growth at 10^-4 M by sulforhodamine B assay; conditions: read-out: Activity
A549 [3] = assay: Growth inhibition of human A549/ATCC cells assessed as cell growth at 10^-4 M by sulforhodamine B assay; conditions: read-out: Activity
NCI-H226 [4] = assay: Growth inhibition of human NCI-H226 cells by sulforhodamine B assay
OVCAR-5 = assay: Growth inhibition of human OVCAR5 cells by sulforhodamine B assay
[5] = Growth inhibition of human Hs 578T cells assessed as cell growth at 10^-6 M by sulforhodamine B assay; conditions: read-out: Activity
SNB-75 = assay: Growth inhibition of human SNB75 cells assessed as cell growth at 10^-6 M by sulforhodamine B assay; conditions: read-out: Activity
NCI-H226 [6] = assay: Growth inhibition of human NCI-H226 cells assessed as cell growth at 10^-7 M by sulforhodamine B assay; conditions: read-out: Activity
A549 [7] = assay: Growth inhibition of human A549/ATCC cells assessed as cell growth at 10^-6 M by sulforhodamine B assay; conditions: read-out: Activity
MDA-MB-231 = assay: Growth inhibition of human MDA-MB-231 cells assessed as cell growth at 10^-7 M by sulforhodamine B assay; conditions: read-out: Activity
A498 = assay: Growth inhibition of human A498 cells assessed as cell growth at 10^-8 M by sulforhodamine B assay; conditions: read-out: Activity
SW-620 [8] = assay: Growth inhibition of human SW620 cells assessed as cell growth at 10^-6 M by sulforhodamine B assay; conditions: read-out: Activity
HOP-62 [9] = assay: Growth inhibition of human HOP62 cells assessed as cell growth at 10^-6 M by sulforhodamine B assay; conditions: read-out: Activity
SNB-19 [10] = assay: Growth inhibition of human SNB19 cells assessed as cell growth at 10^-4 M by sulforhodamine B assay; conditions: read-out: Activity
[11] = Growth inhibition of human NCI-ADR-RES cells assessed as cell growth at 10^-6 M by sulforhodamine B assay; conditions: read-out: Activity
NCI-H23 [12] = assay: Growth inhibition of human NCI-H23 cells assessed as cell growth at 10^-6 M by sulforhodamine B assay; conditions: read-out: Activity
SN12C [13] = assay: Growth inhibition of human SN12C cells by sulforhodamine B assay
UO-31 [14] = assay: Growth inhibition of human UO31 cells assessed as cell growth at 10^-6 M by sulforhodamine B assay; conditions: read-out: Activity
HOP-92 = assay: Growth inhibition of human HOP92 cells assessed as cell growth at 10^-4 M by sulforhodamine B assay; conditions: read-out: Activity
MOLT-4 = assay: Growth inhibition of human MOLT4 cells assessed as cell growth at 10^-6 M by sulforhodamine B assay; conditions: read-out: Activity
UACC-62 [15] = assay: Growth inhibition of human UACC62 cells assessed as cell growth at 10^-6 M by sulforhodamine B assay; conditions: read-out: Activity
HOP-62 [16] = assay: Growth inhibition of human HOP62 cells assessed as cell growth at 10^-7 M by sulforhodamine B assay; conditions: read-out: Activity
NCI-H522 = assay: Growth inhibition of human NCI-H522 cells assessed as cell growth at 10^-8 M by sulforhodamine B assay; conditions: read-out: Activity
MDA-MB-468 [17] = assay: Growth inhibition of human MDA-MB-468 cells assessed as cell growth at 10^-6 M by sulforhodamine B assay; conditions: read-out: Activity
NCI-H460 = assay: Growth inhibition of human NCI-H460 cells assessed as cell growth at 10^-6 M by sulforhodamine B assay; conditions: read-out: Activity
SN12C [18] = assay: Growth inhibition of human SN12C cells assessed as cell growth at 10^-8 M by sulforhodamine B assay; conditions: read-out: Activity
K562 = assay: Growth inhibition of human K562 cells by sulforhodamine B assay
M14 = assay: Growth inhibition of human M14 cells by sulforhodamine B assay
NCI-H23 [19] = assay: Growth inhibition of human NCI-H23 cells assessed as cell growth at 10^-8 M by sulforhodamine B assay; conditions: read-out: Activity
DU-145 = assay: Growth inhibition of human DU145 cells assessed as cell growth at 10^-8 M by sulforhodamine B assay; conditions: read-out: Activity
SNB-19 [20] = assay: Growth inhibition of human SNB19 cells assessed as cell growth at 10^-7 M by sulforhodamine B assay; conditions: read-out: Activity
SK-MEL-28 = assay: Growth inhibition of human SK-MEL-28 cells by sulforhodamine B assay
RPMI-8226 = assay: Growth inhibition of human RPMI8226 cells assessed as cell growth at 10^-8 M by sulforhodamine B assay; conditions: read-out: Activity
UACC-62 [21] = assay: Growth inhibition of human UACC62 cells assessed as cell growth at 10^-8 M by sulforhodamine B assay; conditions: read-out: Activity
SW-620 [22] = assay: Growth inhibition of human SW620 cells assessed as cell growth at 10^-7 M by sulforhodamine B assay; conditions: read-out: Activity
HCT-15 = assay: Growth inhibition of human HCT15 cells assessed as cell growth at 10^-4 M by sulforhodamine B assay; conditions: read-out: Activity
IGROV-1 = assay: Growth inhibition of human IGROV1 cells assessed as cell growth at 10^-8 M by sulforhodamine B assay; conditions: read-out: Activity
NCI-H322M = assay: Growth inhibition of human NCI-H322M cells assessed as cell growth at 10^-7 M by sulforhodamine B assay; conditions: read-out: Activity
SK-MEL-2 = assay: Growth inhibition of human SK-MEL-2 cells assessed as cell growth at 10^-4 M by sulforhodamine B assay; conditions: read-out: Activity
UO-31 [23] = assay: Growth inhibition of human UO31 cells by sulforhodamine B assay
[24] = read-out: LC50 (the source's name)
[25] = read-out: pLC50 (the source's name) (converted)

## CC(C)=CC(=O)O[C@@H]1CC(C)(C)C[C@H]2C3=CC[C@@H]4[C@@]5(C)CC[C@H](O)C(C)(C)[C@@H]5CC[C@@]4(C)[C@]3(C)CC[C@@]12C(=O)O [Reduced Lantadene B]
MDA-MB-468 [1]
  growth at 0.01 µM: 92%
NCI-H226 [2]
  growth at 100 µM: -56%
A549 [3]
  growth at 100 µM: -56%
NCI-H226 [4]; read-out: GI50
  GI50: 5.09 µM
NCI-H226 [4]; read-out: LC50
  LC50: 86 µM
NCI-H226 [4]; read-out: TGI
  TGI: 24.2 µM
NCI-H226 [4]; read-out: pGI50 (converted)
  GI50: 5.13 µM
NCI-H226 [4]; read-out: pLC50 (converted)
  LC50: 85.1 µM
NCI-H226 [4]; read-out: pTGI (converted)
  TGI: 24 µM
OVCAR-5; read-out: GI50
  GI50: 15.9 µM
OVCAR-5; [24]
  CC50: 98.9 µM
OVCAR-5; read-out: TGI
  TGI: 39.7 µM
OVCAR-5; read-out: pGI50 (converted)
  GI50: 15.8 µM
OVCAR-5; [25]
  CC50: 100 µM
OVCAR-5; read-out: pTGI (converted)
  TGI: 39.8 µM
[5]
  growth at 1 µM: 92%
SNB-75
  growth at 1 µM: 85%
NCI-H226 [6]
  growth at 0.1 µM: 88%
A549 [7]
  growth at 1 µM: 34%
MDA-MB-231
  growth at 0.1 µM: 97%
A498
  growth at 0.01 µM: 84%
SW-620 [8]
  growth at 1 µM: 87%
HOP-62 [9]
  growth at 1 µM: 88%
SNB-19 [10]
  growth at 100 µM: -62%
[11]
  growth at 1 µM: 90%
NCI-H23 [12]
  growth at 1 µM: 91%
SN12C [13]; read-out: GI50
  GI50: 2.88 µM
SN12C [13]; [24]
  CC50: 37 µM
SN12C [13]; read-out: TGI
  TGI: 10.9 µM
SN12C [13]; read-out: pGI50 (converted)
  GI50: 2.88 µM
SN12C [13]; [25]
  CC50: 37.2 µM
SN12C [13]; read-out: pTGI (converted)
  TGI: 11 µM
UO-31 [14]
  growth at 1 µM: 89%
HOP-92
  growth at 100 µM: -81%
MOLT-4
  growth at 1 µM: 78%
UACC-62 [15]
  growth at 1 µM: 82%
HOP-62 [16]
  growth at 0.1 µM: 87%
NCI-H522
  growth at 0.01 µM: 92%
MDA-MB-468 [17]
  growth at 1 µM: 77%
NCI-H460
  growth at 1 µM: 78%
SN12C [18]
  growth at 0.01 µM: 101%
K562; read-out: GI50
  GI50: 3.38 µM
K562; read-out: LC50
  LC50: > 100 µM
K562; read-out: TGI
  TGI: 93.1 µM
K562; read-out: pGI50 (converted)
  GI50: 3.39 µM
K562; read-out: pLC50 (converted)
  LC50: > 100 µM
K562; read-out: pTGI (converted)
  TGI: 93.3 µM
M14; read-out: GI50
  GI50: 7.71 µM
M14; [24]
  CC50: 67.8 µM
M14; read-out: TGI
  TGI: 24.8 µM
M14; read-out: pGI50 (converted)
  GI50: 7.76 µM
M14; [25]
  CC50: 67.6 µM
M14; read-out: pTGI (converted)
  TGI: 24.5 µM
NCI-H23 [19]
  growth at 0.01 µM: 95%
DU-145
  growth at 0.01 µM: 101%
SNB-19 [20]
  growth at 0.1 µM: 86%
SK-MEL-28; read-out: GI50
  GI50: 4.89 µM
SK-MEL-28; [24]
  CC50: 70.1 µM
SK-MEL-28; read-out: TGI
  TGI: 20.4 µM
SK-MEL-28; read-out: pGI50 (converted)
  GI50: 4.9 µM
SK-MEL-28; [25]
  CC50: 70.8 µM
SK-MEL-28; read-out: pTGI (converted)
  TGI: 20.4 µM
RPMI-8226
  growth at 0.01 µM: 100%
UACC-62 [21]
  growth at 0.01 µM: 94%
SW-620 [22]
  growth at 0.1 µM: 95%
HCT-15
  growth at 100 µM: -44%
IGROV-1
  growth at 0.01 µM: 104%
NCI-H322M
  growth at 0.1 µM: 89%
SK-MEL-2
  growth at 100 µM: -71%
UO-31 [23]; read-out: GI50
  GI50: 3.69 µM
UO-31 [23]; [24]
  CC50: 45.4 µM
UO-31 [23]; read-out: TGI
  TGI: 15.5 µM
UO-31 [23]; read-out: pGI50 (converted)
  GI50: 3.72 µM
UO-31 [23]; [25]
  CC50: 45.7 µM
UO-31 [23]; read-out: pTGI (converted)
  TGI: 15.5 µM
